From US20220229068A1, “DETECTION OF PROTEIN TO PROTEIN INTERACTIONS” (THE GOVERNING COUNCIL OF THE UNIVERSITY OF TORONTO, priority 2019, published 2022)

System: MAPK1/ELK1 interaction
Assay: SIMPL kinase/substrate interactions (ELISA and Western blot)
Type: cell-based, human
Conditions: kinase-IN / substrate-IC, stimulation
Experimental: Cell culture and treatment. HEK 293 and HeLa cell lines were generous gifts from Dr. J. Moffat. HEK 293 Flp-In T-Rex cell line was a generous gift from Dr. A. C. Gingras. These cells were grown in DMEM supplemented with 10% fetal calf serum (Life Technologies). PC9 cell line was a generous gift from Dr. P. Jannes and they were grown in RPMI 1640 medium supplemented with 10% fetal calf serum. For ELISA assay, cells were seeded in 96 well (Sarstedt AG & Co) or 384 well plates (Greiner Bio-One) with 15,000 (96 well) or 5,000 (384 well) cells per well. Cells were transfected with various plasmids with polyethylenimine (PEI) Max (Polysciences). Expression in HEK 293 Flp-In T-Rex cells was induced by treating the cells with tetracycline (1 μg/ml) for 6-16 hrs. […] Stable cell lines were created according to the manual of Flp-In T-REx (Invitrogen). Briefly, plasmid containing both bait and prey DNA and pOG44 plasmid (1:10 ratio) were cotransfected into HEK 293 Flp-In T-Rex cells.
Western blot analysis and immunoprecipitation. Cells were lysed in buffer H (Triton X 100 1%, β-glycerophosphate pH7.3 50 mM, EGTA 1.5 mM, EDTA 1 mM, orthovanadate 0.1 mM, DTT 1 mM supplemented with protease inhibitors (Roche)). […]
ELISA. […] The plate was washed 3 times with PBST followed by chemiluminescence reading using SuperSignal ELISA Pico substrate (ThermoFisher). […]

Question: How did the “MAPK1/ELK1 interaction after MAPK1 activation” value turn out when Tetradecanoylphorbol acetate [TPA] was run?
Answer: enhanced MAPK1/ELK1 interaction
